Results as given in patent publication US9499493B2, “2,4-pyrimidinediamine compounds and their uses” (Rigel Pharmaceuticals, Inc., priority 2002, dated 2016).

The compounds below were run on cultured human mast cells (CHMC) (assay: CHMC low cell density IgE activation: tryptase assay). Details: anti-IgE.
Type: cell-based
Experimental: Pellet CHMC cells (980 rpm, 10 min) and resuspend in pre-warmed MT. Add 65 ul of cells to each 96-well plate. Depending on the degranulation activity for each particular CHMC donor, load 1000-1500 cells/well. Mix four times followed by a 1 hr incubation at 37° C. […] Stimulate cells by adding 25 ul of 6× anti-IgE solution to the appropriate plates. Add 25 ul MT to un-stimulated control wells. Mix twice following addition of the anti-IgE. Incubate at 37° C. for 30 minutes. […] Spin plates at 1000 rpm for 10 min to pellet cells. Transfer 25 ul of supernatant to a 96-well black bottom plate and add 100 ul of freshly diluted tryptase substrate solution to each well. Incubate plates at room temperature for 30 min.
“N4-(1,4-Benzoxazin-7-yl)-5-fluoro-N2-(3-hydroxyphenyl)-pyrimidinediamine [R908711]” was tested, and the IC50 was 1760 nM. In the case of CCOC(=O)C1CCN(C(=O)c2cccc(Nc3nc(Nc4cccc(OCC(=O)NC)c4)ncc3F)c2)CC1 [R926941, N4-[3-[[4-(Ethoxycarbonyl)piperidino]carbonyl]phenyl]-5-fluoro-N2-[3-[(N-methylamino)carbonylmethyleneoxy]phenyl]-2,4-pyrimidinediamine], the IC50 is reported as 4200 nM. For Fc1cnc(Cl)nc1Nc1ccc(Cl)c(Cl)c1 [Compound R926884], the IC50 was greater than 10000 nM. COc1ccc(Nc2nc(Nc3ccc4c(cnn4C)c3)ncc2F)c(OC)n1 [R935380, N4-(2,6-Dimethoxy-3-pyridyl)-5-fluoro-N2-[1-methylindazoline-5-yl]-2,4-pyrimidinediamine] gave an IC50 of 1610 nM. Work on CNC(=O)COc1cccc(Nc2ncc(F)c(Nc3cccc(-c4nnc(-c5cccc(Cl)c5)o4)c3)n2)c1 [R926871, N4-[3-(2-(3-Chlorophenyl)-1,3,4-oxadiazol-5-yl)phenyl]-5-fluoro-N2-[3-(N-methylamino)carbonylmethyleneoxyphenyl]-2,4-pyrimidinediamine] yielded an IC50 of 2150 nM. For CNC(=O)COc1cccc(Nc2ncc(F)c(Nc3cccc(SC(F)(F)F)c3)n2)c1 [R926925, 5-Fluoro-N2-[3-[(N-methylamino)carbonylmethyleneoxy]phenyl]-N4-(3-trifluoromethylthiophenyl)-2,4-pyrimidinediamine], the IC50 was 307 nM. Fc1cnc(Cl)nc1Nc1ccc(C(F)(F)F)cc1 [Compound R926876] gave an IC50 greater than 10000 nM. In the case of CNC(=O)COc1cccc(Nc2ncc(F)c(Nc3ccc(OC)c(CN(C)C)c3)n2)c1 [R940321, N4-(3-N,N-Dimethylaminomethylene-4-methoxyphenyl)-5-fluoro-N2-[3-(methylaminocarbonylmethyleneoxy)phenyl]-2,4-pyrimidinediamine], the IC50 is reported as greater than 10000 nM. Work on CNC(=O)COc1cccc(Nc2ncc(F)c(Nc3ccc4c(c3)N(C(=N)N)CCO4)n2)c1 [R909292, N4-(4N-Carboxamidino-1,4-benzoxazin-6-yl)-5-fluoro-N2-[3-(N-methylamino)carbonylmethyleneoxyphenyl]-2,4-pyrimidinediamine] yielded an IC50 of 1170 nM. Work on CC1(C)Oc2ccc(Nc3nc(Nc4cccc(O)c4)ncc3F)cc2NC1=O [R940346, N4-[(2,2-Dimethyl-4H-benzo[1,4]oxazin-3-one)-6-yl]-5-fluoro-N2-(3-hydroxyphenyl)-2,4-pyrimidinediamine] yielded an IC50 of 142 nM. CCOC(=O)C=C1NN=C(c2cccc(Nc3nc(Cl)ncc3F)c2)O1 [Compound R926873] showed an IC50 greater than 10000 nM. With Fc1cnc(Cl)nc1Nc1ccc(OC(F)(F)F)cc1 [Compound R926875] the IC50 was greater than 10000 nM. With CCOC(=O)C(C)(C)Oc1cccc(Nc2ncc(F)c(Nc3ccc4cc[nH]c4c3)n2)c1 [R926909, N2-[3-(Ethoxycarbonyl-1,1-dimethylmethyleneoxy)phenyl]-5-fluoro-N4-[(1H)-indol-6-yl]-2,4-pyrimidinediamine] the IC50 was 379 nM. In the case of COC(=O)c1ccc(Cn2ncc3ccc(Nc4ncc(F)c(Nc5ccc6c(c5)OCCO6)n4)cc32)c(OC)c1 [R935320, N4-(3,4-Ethylenedioxyphenyl)-5-fluoro-N2-[1-(2-methoxy-4-carbomethoxybenzyl)indazoline-6-yl]-2,4-pyrimidinediamine], the IC50 is reported as 2770 nM. CC(=O)Nc1cccc(N(C(C)=O)c2ncc(F)c(N(C(C)=O)c3cccc(N(C(C)=O)C(C)=O)c3)n2)c1 [R950245, N4-(3-N,N-Diacetylaminophenyl)-N2-(3-N-acetylaminopheny)-5-fluoro-N2,N4-pyrimidinediacetylamine] gave an IC50 greater than 10000 nM. For CN(C)C(=O)COc1cccc(Nc2ncc(F)c(Nc3ccc4c(c3)NCCO4)n2)c1 [R909290, N2-[3-(N,N-Dimethylaminocarbonylmethyleneoxy)phenyl]-N4-(1,4-benzoxazin-6-yl)-5-fluoro-2,4-pyrimidinediamine], the IC50 was 226 nM. Work on O=C(O)COc1ccc(Nc2ncc(F)c(Nc3ccc4c(c3)OCCO4)n2)cc1 [R926238, N2-(4-Carboxymethyleneoxyphenyl)-N4-(3,4-ethylenedioxyphenyl)-5-fluoro-2,4-pyrimidinediamine] yielded an IC50 greater than 10000 nM. Fc1cnc(Cl)nc1Nc1ccc(Cl)c(C(F)(F)F)c1 [Compound R926877] gave an IC50 greater than 10000 nM. Compound Fc1cnc(Nc2ccc3c(c2)OCCO3)nc1Nc1ccc2[nH]ncc2c1 [R935267, N2-(3,4-Ethyelenedioxyphenyl)-5-fluoro-N4-(indazoline-5-yl)-2,4-pyrimidinediamine] has an IC50 of 2460 nM. Fc1cnc(NCc2ccc3c(c2)OCO3)nc1NCc1ccc2c(c1)OCO2 [R925770, N2,N4-Bis(piperonyl)-5-fluoro-2,4-pyrimidineamine] was tested, and the IC50 was greater than 10000 nM. In the case of CC(C)(CO)c1ccc(Nc2ncc(F)c(Nc3cccc(O)c3)n2)cc1 [R935153, 5-Fluoro-N2-[4-(2-hydroxy-1,1-dimethylethyl)phenyl]-N4-(3-hydroxyphenyl)-2,4-pyrimidinediamine], the IC50 is reported as 238 nM. In the case of CC1(C)CN(c2ccccn2)c2cc(Nc3nc(Cl)ncc3F)ccc2O1 [Compound R940336], the IC50 is reported as greater than 10000 nM. With Fc1cnc(Cl)nc1Nc1cccc(OC(F)(F)F)c1 [Compound R920402] the IC50 was greater than 10000 nM. “N2-(N-Ethylcarbonylmethyleneoxy-1,4-benzoxazin-6-yl)-5-fluoro-N2-[3-hydroxyphenyl)phenyl]pyrimidinediamine [R908734]” showed an IC50 of 1380 nM. CNC(=O)COc1cccc(Nc2ncc(F)c(Nc3cnc4c(c3)OC(C)(C)C(=O)N4)n2)c1 [R940345, N4-[(2,2-Dimethyl-4H-5-pyrido[1,4]oxazin-3-one)-7-yl]-5-fluoro-N2-[3-(methylaminocarbonylmethyleneoxy)phenyl]-2,4-pyrimidinediamine] showed an IC50 of 1710 nM. In the case of CNC(=O)COc1cccc(Nc2ncc(F)c(Nc3ccc(OC)c(CN4CCOCC4)c3)n2)c1 [R940314, 5-Fluoro-N2-[3-(methylaminocarbonylmethyleneoxy)phenyl]-N4-[3-(N-morpholinomethylene)-4-methoxyphenyl]-2,4-pyrimidinediamine], the IC50 is reported as 4200 nM. CNC(=O)COc1cccc(Nc2ncc(F)c(Nc3cccc(-c4nnc(-c5ccccc5)o4)c3)n2)c1 [R926870, 5-Fluoro-N2-[3-(N-methylamino)carbonylmethyleneoxyphenyl]-N4-[3-(2-phenyl-1,3,4-oxadiazol-5-yl)phenyl]-2,4-pyrimidinediamine] was tested, and the IC50 was 3290 nM. Compound O=C(COc1cccc(Nc2ncc(F)c(Nc3cccc(O)c3)n2)c1)N1CCNCC1 [R926772, 5-Fluoro-N4-(3-hydroxyphenyl)-N2-[3-(N-piperazino)carbonylmethyleneoxyphenyl]-2,4-pyrimidinediamine] has an IC50 of 337 nM. COC(=O)c1ccc(Cn2ncc3ccc(Nc4ncc(F)c(Nc5cccc(O)c5)n4)cc32)c(OC)c1 [R935321, 5-Fluoro-N4-(3-hydroxyphenyl)-N2-[1-(2-methoxy-4-carbomethoxybenzyl)indazoline-6-yl]-2,4-pyrimidinediamine] gave an IC50 of 2990 nM. For CNC(=O)COc1cccc(Nc2ncc(F)c(Nc3ccc4c(c3)N(c3ccccn3)CC(C)(C)O4)n2)c1 [R940337, N4-[3-Dihydro-2,2-dimethyl-4-(2-pyridyl)-benzo[1,4]oxazin-6-yl]-5-fluoro-N2-[3-(methylaminocarbonylmethyleneoxy)phenyl]-2,4-pyrimidinediamine], the IC50 was 1100 nM. Compound COc1cc(C(=O)NS(=O)(=O)c2ccccc2C)ccc1Cn1ncc2cc(Nc3ncc(F)c(Nc4ccc5c(c4)OCCO5)n3)ccc21 [R935339, N4-(3,4-Ethylenedioxyphenyl)-5-fluoro-N2-[1-[2-methoxy-4-(o-toluylsulfonamidocarboxy)benzyl]indazoline-5-yl]-2,4-pyrimidinediamine] has an IC50 greater than 10000 nM. With CC(C)Oc1ccc(Nc2nc(Nc3ccc4nn(C)cc4c3)ncc2F)cc1 [R935298, 5-Fluoro-N4-(4-isopropoxyphenyl)-N2-(2-methyl-indazoline-5-yl)-2,4-pyrimidinediamine] the IC50 was 252 nM. Work on C[C@H](Nc1ncc(F)c(N[C@@H](C)[C@H](O)c2ccccc2)n1)[C@H](O)c1ccccc1 [R925767, N2,N4-Bis[(2R)-hydroxy-(1S)-methyl-2-phenylethyl]-5-fluoro-2,4-pyrimidinediamine] yielded an IC50 of 10000 nM. With COc1cc(C(=O)NS(=O)(=O)c2ccccc2C)ccc1Cn1ncc2ccc(Nc3ncc(F)c(Nc4cccc(O)c4)n3)cc21 [R935324, 5-Fluoro-N4-(3-hydroxyphenyl)-N2-[1-[2-methoxy-4-(o-toluylsulfonamidocarboxy)benzyl]indazoline-6-yl]-2,4-pyrimidinediamine] the IC50 was greater than 10000 nM. In the case of CNC(=O)COc1cccc(Nc2ncc(F)c(Nc3ccc(OC)c(C(=O)NC(C)C)c3)n2)c1 [R940312, 5-Fluoro-N2-[3-(methylaminocarbonylmethyleneoxy)phenyl]-N4-(3-iso-propylaminocarbonyl-4-methoxyphenyl)-2,4-pyrimidinediamine], the IC50 is reported as 2560 nM. Work on COc1ccc(Nc2nc(Cl)ncc2F)cc1CN1CCOCC1 [Compound R940313] yielded an IC50 greater than 10000 nM. Work on CC(=O)Nc1cccc(N(C(C)=O)c2ncc(F)c(N(C(C)=O)c3cccc(NC(C)=O)c3)n2)c1 [R950244, N2,N4-Bis(3-N-acetylaminophenyl)-5-fluoro-N2,N4-pyrimidinediacetylamine] yielded an IC50 greater than 10000 nM. COC(=O)C1Cc2cc(Nc3ncc(F)c(Nc4ccc(OCCO)nc4)n3)ccc2O1 (racemic) [R927025, (±)-N2-(2,3-Dihydro-2-methoxycarbonylbenzofuran-5-yl)-5-fluoro-N4-[2-(2-hydroxyethyleneoxy)pyridin-5-yl]-5-fluoro-2,4-pyrimidinediamine] was tested, and the IC50 was 326 nM. For COc1cc(C(=O)NS(=O)(=O)c2ccccc2C)ccc1Cn1ncc2cc(Nc3ncc(F)c(Nc4cccc(O)c4)n3)ccc21 [R935340, 5-Fluoro-N4-(3-hydroxyphenyl)-N2-[1-[2-methoxy-4-(o-toluylsulfonamidocarboxy)benzyl]indazoline-5-yl]-2,4-pyrimidinediamine], the IC50 was 3610 nM.
